Reference: patent US12606533B2, “3-phenylpropylamine derivative” (DAIICHI SANKYO COMPANY, LIMITED, priority 2023, dated 2026)

Tests used:
SF-1 = target: T1, SF-1 (Homo sapiens, UniProt Q13285); assay: SF1 degradation induction in NCI-H295R SF-1-HiBiT cells (HiBiT DC50); format: cell-based; conditions: 24 hr, concentration that induces 50% degradation of SF-1
T1 construct: NCI-H295R SF-1-HiBiT cells with HiBiT tag knocked in at the endogenous SF1 locus; host or cells: NCI-H295R SF-1-HiBiT (knock-in at endogenous locus)
Method: NCI-H295R SF-1-HiBiT cells were seeded in a 384-well plate (Thermo Fisher Scientific Inc.) at 1×10^4 cells/50 μL/well and cultured at 37° C. in a 5% CO2 incubator for 24 hr. DMSO solutions of each compound were serially diluted with DMSO using a D300e Digital Dispenser (TECAN), added to a 384-well plate, and cultured in a 5% CO2 incubator at 37° C. for 24 hr. […] After completion of culture, the medium was discarded, and Nano-Glo (registered trade mark) HiBiT Lytic Detection System (Promega, Cat. No. N3040) was added at 20 μL/well and stirred with a plate mixer. Luminescence signals were then detected using a multimode plate reader (EnVision Xcite, PerkinElmer). The SF-1 protein degradation rate was calculated from the amount of luminescence (C) in the compound-free group and the amount of luminescence (T) in the compound-added group, based on the following formula.
The obtained data was analyzed using GraphPad Prism9 (GraphPad Software Inc.) or Genedata Screener (Genedata AG) to calculate the concentration that induces 50% degradation of SF-1 (DC50 value).

NCI-H295R cells = assay: Proliferation inhibitory action on NCI-H295R (CellTiter-Glo, 7 days); format: cell-based, human; conditions: Homo sapiens, NCI-H295R, 168 h
Method: DMSO solutions of each compound were serially diluted with DMSO using a D300e Digital Dispenser (TECAN), and added to a 384-well plate (Thermo Fisher Scientific Inc.). NCI-H295R cells were seeded in a 384-well plate at 2×10^3 cells/40 μL/well and cultured for 7 days in a 37° C., 5% CO2 incubator. […] On the first day of culture (day 0) and the seventh day of culture (day 7), 10 μL/well of CellTiter-Glo (registered trademark) 2.0 Assay (Promega) was added, and the luminescence signal was detected using a multimode plate reader (EnVision, PerkinElmer). The cell proliferation rate was calculated from the luminescence amount on the day of compound addition (CO), the luminescence amount of the compound-free group after 7 days of culture (C7), and the luminescence amount of the compound-added group (T7), based on the following formula.

Compound | DC50 (SF-1) | GI50 (NCI-H295R cells)
COc1ccc([C@]2(CCN(Cc3ccc(C4=CC[C@H](C(=O)N5CCC(Nc6ccc7c(c6)CN(C6CCC(=O)NC6=O)C7=O)CC5)CC4)cc3)CC(C)(C)C(F)(F)F)CCOC(C)(C)C2)cc1 (stereo partly drawn) [BO4, 3-{5-[(1-{[(4R)-4′-{[{2-[(4R)-4-(4-Methoxyphenyl)-2,2-dimethyltetrahydro-2H-pyran-4-yl]ethyl)(3,3,3-trifluoro-2,2-dimethylpropyl)amino]methyl}-2,3,4,5-tetrahydro[biphenyl]-4-yl]carbonyl}piperidin-4-yl)amino]-1-oxo-1,3-dihydro-2H-isoindol-2-yl}piperidine-2,6-dione] | 15 nM | 129 nM
COc1ccc([C@]2(CCN(Cc3ccc(C4=CC[C@H](CN5CCN(C(=O)c6ccc7c8c6O[C@@H]6COC[C@@H]6n8c(=O)n7C6CCC(=O)NC6=O)CC5)CC4)cc3)CC(C)(C)C(F)(F)F)CCOC(C)(C)C2)cc1 (relative stereo) [BV10, 3-[(6aS*,9aS*)-5-[(4-{[(4R)-4′-{[{2-[(4R)-4-(4-Methoxyphenyl)-2,2-dimethyltetrahydro-2H-pyran-4-yl]ethyl}(3,3,3-trifluoro-2,2-dimethylpropyl)amino]methyl}-2,3,4,5-tetrahydro[biphenyl]-4-yl]methyl}piperazin-1-yl)carbonyl]-1-oxo-6a, 7,9,9a-tetrahydrofuro[3,4-b]imidazo[1,5,4-de][1,4]benzoxazin-2(1H)-yl]piperidine-2,6-dione] | 14 nM | 123 nM
COc1ccc([C@]2(CCN(Cc3ccc(C4=CC[C@H](C(=O)N5CCN(Cc6cc(F)c7c(c6)n(C)c(=O)n7C6CCC(=O)NC6=O)CC5)CC4)cc3)CC(C)(C)C(F)(F)F)CCOC(C)(C)C2)cc1 (stereo partly drawn) [BP6, 3-{7-Fluoro-5-[(4-{[(4R)-4′-{[{2-[(4R)-4-(4-methoxyphenyl)-2,2-dimethyltetrahydro-2H-pyran-4-yl]ethyl}(3,3,3-trifluoro-2,2-dimethylpropyl)amino]methyl}-2,3,4,5-tetrahydro[biphenyl]-4-yl]carbonyl}piperazin-1-yl)methyl]-3-methyl-2-oxo-2,3-dihydro-1H-benzimidazol-1-yl}piperidine-2,6-dione] | 12 nM | 71 nM
COc1ccc([C@]2(CCN(Cc3ccc(C4=CC[C@H](C(=O)N5CCC(Nc6ccc7c(c6F)n(C)c(=O)n7C6CCC(=O)NC6=O)CC5)CC4)c(F)c3)CC(C)(C)C(F)(F)F)CCOC(C)(C)C2)cc1 (stereo partly drawn) [BX6, 3-{4-Fluoro-5-[(1-{[(4R)-2′-fluoro-4′-{[{2-[(4R)-4-(4-methoxyphenyl)-2,2-dimethyltetrahydro-2H-pyran-4-yl]ethyl}(3,3,3-trifluoro-2,2-dimethylpropyl)amino]methyl}-2,3,4,5-tetrahydro[biphenyl]-4-yl]carbonyl}piperidin-4-yl)amino]-3-methyl-2-oxo-2,3-dihydro-1H-benzimidazol-1-yl}piperidine-2,6-dione] | 7.1 nM | 52 nM

Now from value to compound:

DC50 (SF-1) | GI50 (NCI-H295R cells) | Compound
4.3 nM | 70 nM | COc1ccc([C@]2(CCN(Cc3ccc(C4=CC[C@H](CN5CCN(C(=O)c6ccc7c8c6NCCn8c(=O)n7[C@H]6CCC(=O)NC6=O)CC5)CC4)cc3)CC(C)(C)C(F)(F)F)CCOC(C)(C)C2)cc1 [CE1, (3S)-3-{7-[(4-{[(4R)-4′-{[{2-[(4R)-4-(4-Methoxyphenyl)-2,2-dimethyltetrahydro-2H-pyran-4-yl]ethyl)(3,3,3-trifluoro-2,2-dimethylpropyl)amino]methyl}-2,3,4,5-tetrahydro[biphenyl]-4-yl]methyl}piperazin-1-yl)carbonyl]-2-oxo-5,6-dihydro-4H-imidazo[1,5,4-de]quinoxalin-1(2H)-yl}piperidine-2,6-dione]
10 nM | 43 nM | COc1ccc([C@]2(CCN(Cc3ccc(OC4CCN(CC(=O)Nc5cccc6c5n(C)c(=O)n6C5CCC(=O)NC5=O)CC4)cc3)CC(C)(C)C(F)(F)F)CCOC(C)(C)C2)cc1 (stereo partly drawn) [Example Z8, N-[1-(2,6-Dioxopiperidin-3-yl)-3-methyl-2-oxo-2,3-dihydro-1H-benzimidazol-4-yl]-2-[4-(4-{[{2-[(4R)-4-(4-methoxyphenyl)-2,2-dimethyltetrahydro-2H-pyran-4-yl]ethyl)(3,3,3-trifluoro-2,2-dimethylpropyl)amino]methyl}phenoxy)piperidin-1-yl]acetamide]
7 nM | 33 nM | COc1ccc([C@]2(CCN(Cc3ccc(C4=CC[C@H](C(=O)N5CCC(Nc6cccc7c6n(C)c(=O)n7C6CCC(=O)NC6=O)CC5)CC4)c(F)c3)CC(C)(C)C(F)(F)F)CCOC(C)(C)C2)cc1 (stereo partly drawn) [CD2, 3-{4-[(1-{[(4R)-2′-Fluoro-4′-{[{2-[(4R)-4-(4-methoxyphenyl)-2,2-dimethyltetrahydro-2H-pyran-4-yl]ethyl}(3,3,3-trifluoro-2,2-dimethylpropyl)amino]methyl}-2,3,4,5-tetrahydro[biphenyl]-4-yl]carbonyl}piperidin-4-yl)amino]-3-methyl-2-oxo-2,3-dihydro-1H-benzimidazol-1-yl}piperidine-2,6-dione]
12 nM | 488 nM | COc1ccc([C@]2(CCN(Cc3ccc(-c4cccc(CC(=O)NCCNc5ccc6c(c5)n(C)c(=O)n6C5CCC(=O)NC5=O)c4)cc3)CC(C)(C)C(F)(F)F)CCOC(C)(C)C2)cc1 (stereo partly drawn) [Example AA4, N-(2-{[1-(2,6-Dioxopiperidin-3-yl)-3-methyl-2-oxo-2,3-dihydro-1H-benzimidazol-5-yl]amino}ethyl)-2-(4′-{[{2-[(4R)-4-(4-methoxyphenyl)-2,2-dimethyltetrahydro-2H-pyran-4-yl]ethyl)(3,3,3-trifluoro-2,2-dimethylpropyl)amino]methyl}[biphenyl]-3-yl)acetamide]
6.9 nM | 47 nM | COc1ccc([C@]2(CCN(Cc3ccc(OC4CC5(CCN(CC(=O)Nc6cccc7c6n(C)c(=O)n7C6CCC(=O)NC6=O)CC5)C4)cc3)CC(C)(C)C(F)(F)F)CCOC(C)(C)C2)cc1 (stereo partly drawn) [Example AD1, N-[1-(2,6-Dioxopiperidin-3-yl)-3-methyl-2-oxo-2,3-dihydro-1H-benzimidazol-4-yl]-2-[2-(4-{[{2-[(4R)-4-(4-methoxyphenyl)-2,2-dimethyltetrahydro-2H-pyran-4-yl]ethyl}(3,3,3-trifluoro-2,2-dimethylpropyl)amino]methyl}phenoxy)-7-azaspiro[3.5]nonan-7-yl]acetamide]
13 nM | 85 nM | COc1ccc([C@]2(CCN(Cc3ccc(C4=CC[C@H](C(=O)N5CCN(Cc6ccc7c8c6CN(C)CCn8c(=O)n7C6CCC(=O)NC6=O)CC5)CC4)c(F)c3)CC(C)(C)C(F)(F)F)CCOC(C)(C)C2)cc1 (stereo partly drawn) [CB10, 3-{8-[(4-{[(4R)-2′-Fluoro-4′-{[{2-[(4R)-4-(4-methoxyphenyl)-2,2-dimethyltetrahydro-2H-pyran-4-yl]ethyl}(3,3,3-trifluoro-2,2-dimethylpropyl)amino]methyl}-2,3,4,5-tetrahydro[biphenyl]-4-yl]carbonyl}piperazin-1-yl)methyl]-6-methyl-2-oxo-4,5,6,7-tetrahydroimidazo[4,5,1-jk][1,4]benzodiazepin-1(2H)-yl}piperidine-2,6-dione]
